Among the data in ChEMBL document CHEMBL4699475, “Campafungins: Inhibitors of Candida albicans and Cryptococcus neoformans Hyphal Growth” (2020) are Activity, MIC and inhibition values, retold here.

Experiment [1] deals with Cryptococcus neoformans. As to the kind of experiment: Antimicrobial activity against Cryptococcus neoformans H99 harboring pde1 deletion mutant assessed as reduction in microbial growth after 72 hrs by resazurin staining based liquid serial dilution assay. Type of experiment: functional, organism-based.
For another experiment, the system named is Candida tropicalis. As to the kind of experiment: Antimicrobial activity against Candida tropicalis ATCC 750 assessed as reduction in microbial growth after 48 hrs by resazurin staining based liquid serial dilution assay. Type of experiment: functional.
Experiment [2] deals with Aspergillus fumigatus. As to the kind of experiment: Inhibition of hyphal extension in Aspergillus fumigatus AF293 at 10 ug/ml measured after 48 hrs by microscopic analysis. Type of experiment: functional, organism-based. As to conditions: dose 10.0 µg/ml.
The test system of experiment [3] is Cryptococcus neoformans. As to the kind of experiment: Effect on cAMP signaling mediated virulence associated encapsulation phenotype in Cryptococcus neoformans H99 incubated for 72 hrs by India Ink staining based analysis. The class given is functional.
Experiment [4] concerns Aspergillus fumigatus. As to the kind of experiment: Antimicrobial activity against Aspergillus fumigatus AF293 assessed as reduction in microbial growth after 48 hrs by resazurin staining based liquid serial dilution assay. Type of experiment: functional.
The subject of experiment [5] is Cryptococcus neoformans. Kind of experiment: Effect on cAMP signaling mediated virulence associated melanin production phenotype in Cryptococcus neoformans H99 incubated for 72 hrs in presence of L-DOPA. The class given is functional.
The subject of experiment [6] is Aspergillus fumigatus. As to the kind of experiment: Antimicrobial activity against Aspergillus fumigatus FSGC A1240 assessed as reduction in microbial growth after 48 hrs by resazurin staining based liquid serial dilution assay. The class given is functional.
A further experiment has as its system Nakaseomyces glabratus. Kind of experiment: Antimicrobial activity against Candida glabrata ATCC 2001 assessed as reduction in microbial growth after 48 hrs by resazurin staining based liquid serial dilution assay. The class given is functional.
Experiment [7] concerns Candida albicans. Kind of experiment: Antimicrobial activity against Candida albicans ATCC 10231 assessed as reduction in microbial growth after 48 hrs by resazurin staining based liquid serial dilution assay. The class given is functional.
In experiment [8] the test system is Candida albicans. Kind of experiment: Inhibition of hyphal extension in Candida albicans SC3514 at 10 ug/ml measured after 24 to 48 hrs by microscopic analysis. Type of experiment: functional, organism-based. As to conditions: dose 10.0 µg/ml, time 24-48 hrs.
The next experiment concerns Staphylococcus aureus. As to the kind of experiment: Antimicrobial activity against Staphylococcus aureus ATCC 43300 assessed as reduction in microbial growth after 24 hrs by resazurin staining based liquid serial dilution assay. The class given is functional.
Experiment [9] concerns Cryptococcus neoformans. As to the kind of experiment: Antimicrobial activity against Cryptococcus neoformans H99 assessed as reduction in microbial growth after 72 hrs by resazurin staining based liquid serial dilution assay. Type of experiment: functional.
Experiment [10] has as its system Cryptococcus neoformans. As to the kind of experiment: Antimicrobial activity against Cryptococcus neoformans H99 harboring gpa1 deletion mutant assessed as reduction in microbial growth after 72 hrs by resazurin staining based liquid serial dilution assay. Type of experiment: functional, organism-based.
Experiment [11] relates to Schizosaccharomyces pombe. Kind of experiment: Antimicrobial activity against Schizosaccharomyces pombe strain SAK1 harboring MJ-1682 efflux mutant assessed as reduction in microbial growth by resazurin staining based CLSI method. Type of experiment: functional.
Experiment [12] relates to Candida albicans. Kind of experiment: Inhibition of hyphal extension in Candida albicans SC3514 at 10 ug/ml measured at >48 hrs by microscopic analysis. The class given is functional, organism-based. As to conditions: dose 10.0 µg/ml, time hrs >48.
Experiment [13] deals with Cryptococcus neoformans. As to the kind of experiment: Antimicrobial activity against Cryptococcus neoformans H99 harboring pka1 deletion mutant assessed as reduction in microbial growth after 72 hrs by resazurin staining based liquid serial dilution assay. Type of experiment: functional, organism-based.
Experiment [14] relates to Cryptococcus neoformans. Kind of experiment: Antimicrobial activity against Cryptococcus neoformans H99 harboring pkr1 deletion mutant assessed as reduction in microbial growth after 72 hrs by resazurin staining based liquid serial dilution assay. Type of experiment: functional, organism-based.
The subject of experiment [15] is Cryptococcus neoformans. As to the kind of experiment: Antimicrobial activity against Cryptococcus neoformans H99 harboring cac1 deletion mutant assessed as reduction in microbial growth after 72 hrs by resazurin staining based liquid serial dilution assay. The class given is functional, organism-based.
For experiment [16], the system named is Schizosaccharomyces pombe. Kind of experiment: Antimicrobial activity against Schizosaccharomyces pombe strain SAK1 assessed as reduction in microbial growth by resazurin staining based CLSI method. Type of experiment: functional.

Activity calls are given as the source filed them. The calls are words filed in the database; no cut-off is given here.

Take `C\C=C(/C=C/C=C/C=C/C=C/C(=O)O)[C@]1(O)[C@H]2CC=C(C)C[C@@H]2C=C[C@@]1(C)O`: the outcome in the experiment with Cryptococcus neoformans [1], with Cryptococcus neoformans [10], in the experiment on Cryptococcus neoformans [13], in the experiment with Cryptococcus neoformans [14] and with Cryptococcus neoformans [15] was Active. Also, the MIC with Candida tropicalis is 64 µg/mL; in the experiment with Aspergillus fumigatus [4] it was 38 µg/mL; in the experiment with Aspergillus fumigatus [6] it was 64 µg/mL; with Nakaseomyces glabratus, greater than 128 µg/mL; in the experiment on Candida albicans [7], 128 µg/mL; in the experiment on Staphylococcus aureus, 64 µg/mL. Also, the figures for the MIC (with Cryptococcus neoformans [9]; in experiment [11]; in [16]) were 8 µg/mL, 2 µg/mL and 10 µg/mL, respectively. The inhibition result in the experiment on Aspergillus fumigatus [2] and in the experiment on Candida albicans [8] was “Active” each time. For the same compound, the outcome in the experiment with Cryptococcus neoformans [3] and in the experiment on Cryptococcus neoformans [5] was inactive. The inhibition entry with Candida albicans [12] is “inactive”.
Turning to `C[C@@H]1[C@H](O)[C@@H](C)/C=C/C=C/C=C/C=C/C=C/C=C/C=C/[C@H](O[C@@H]2O[C@H](C)[C@@H](O)[C@H](N)[C@@H]2O)C[C@@H]2O[C@](O)(C[C@@H](O)C[C@@H](O)[C@H](O)CC[C@@H](O)C[C@@H](O)CC(=O)O[C@H]1C)C[C@H](O)[C@H]2C(=O)O` [AMPHOTERICIN B], the MIC in the experiment on Candida tropicalis amounted to 0.36 µg/mL; in the experiment on Aspergillus fumigatus [6] it was 0.74 µg/mL; in the experiment with Nakaseomyces glabratus, 0.18 µg/mL; with Candida albicans [7] it was 0.36 µg/mL; in the experiment with Cryptococcus neoformans [9] it was 0.36 µg/mL.
For `C/C=C(\C)[C@]1(O)C=C[C@@H]2CC(C)=CC[C@H]2[C@]1(O)/C=C/C=C/C=C\C=C\C(=O)O`, the MIC in the experiment on Candida tropicalis was 64 µg/mL; with Aspergillus fumigatus [6] it was 64 µg/mL; in the experiment with Nakaseomyces glabratus, greater than 128 µg/mL; in the experiment on Candida albicans [7], 128 µg/mL; with Staphylococcus aureus, 32 µg/mL; with Cryptococcus neoformans [9] it was 4 µg/mL.
With `C/C=C(\C)[C@@]1(O)[C@@H](/C=C/C=C/C=C/C=C/C(=O)O)[C@@H]2CC=C(C)C[C@H]2[C@@H]2O[C@@H]21`, the MIC in the experiment on Candida tropicalis is 64 µg/mL; with Aspergillus fumigatus [6], 64 µg/mL; in the experiment with Nakaseomyces glabratus, greater than 128 µg/mL; in the experiment on Candida albicans [7] it was 128 µg/mL; in the experiment on Staphylococcus aureus it was 32 µg/mL; with Cryptococcus neoformans [9], 4 µg/mL.
On to `C/C=C(\C)[C@]1(O)C=C[C@@H]2CC(C)=CC[C@H]2[C@]1(O)/C=C/C=C/C=C\C=C\C=C\C(=O)O`, for which the MIC was 64 µg/mL in the experiment with Candida tropicalis; 64 µg/mL in the experiment with Aspergillus fumigatus [6]; greater than 128 µg/mL in the experiment with Nakaseomyces glabratus; greater than 128 µg/mL with Candida albicans [7]; 32 µg/mL with Staphylococcus aureus; 8 µg/mL in the experiment on Cryptococcus neoformans [9].
